Reference: the PolyMetriX glass transition set

Row | Structure (SMILES) | glass transition temperature [°C]
1 | *C(=O)OCC(C)(C)CS(=O)(=O)CC(C)(C)COC(=O)N1CC(C)N(*)CC1C (repeat unit) | 85.00
2 | *C(=O)OCC(C)(C)CSCC(C)(C)COC(=O)C1(C)CNC(*)(C)CN1 (repeat unit) | 40.00
3 | *CC(=C)COCC(=C)COC(=O)O* (repeat unit) | 70.50
4 | *CC(=O)NCCCCCCNC(=O)CO* (repeat unit) | 10.00
5 | *CC(C)(C)C(=O)O* (repeat unit) | -12.00
6 | *CC(C)(C)CO* (repeat unit) | -50.00
7 | *CC(C)(C)COC(=O)C1CCC(C(=O)O*)CC1 (repeat unit) | 30.00
8 | *CC(C)(C)COC(=O)CCCCC(=O)O* (repeat unit) | -31.5
9 | *CC(C)(C)COC(=O)O* (repeat unit) | 25.00
10 | *CC(C)(C)CS* (repeat unit) | -49.30
11 | *CC(C)(CC)CS* (repeat unit) | -50.00
12 | *CC(C)(CO*)COCC(F)(F)F (repeat unit) | -41.00
13 | *CC(C)(CO*)COCCC#N (repeat unit) | -52.00
14 | *CC(C)(CO*)COCCCCCCCCCCOc1ccc(-c2ccc(C#N)cc2)cc1 (repeat unit) | 7.00
15 | *CC(C)(COC(=O)NCCCCCCNC(=O)O*)C(=O)O (repeat unit) | -26.00
16 | *CC(C)CO* (repeat unit) | -55.00
17 | *CC(CC)(CC)C(=O)O* (repeat unit) | 60.00
18 | *CC(CC)(CC)CS* (repeat unit) | -36.2
19 | *CC(CC)(CO)CO* (repeat unit) | 331.90
20 | *CC(CO)(CO)CO* (repeat unit) | 99.00
21 | *CC(CO*)(CS(=O)(=O)C(C)C)CS(=O)(=O)C(C)C (repeat unit) | 91.00
22 | *CC(CO*)(CS(=O)(=O)CCC)CS(=O)(=O)CCC (repeat unit) | 71.00

Row | Structure (SMILES) | glass transition temperature [°C]
23 | *CC(CO*)(CS(=O)(=O)CCCC)CS(=O)(=O)CCCC (repeat unit) | 66.00
24 | *CC(CO*)(CS(C)(=O)=O)CS(C)(=O)=O (repeat unit) | 126.00
25 | *CC(CO*)(CSC)CSC (repeat unit) | -6.00
26 | *CC(CO*)(CSCC)CSCC (repeat unit) | -32.00
27 | *CC(CO*)(CSCCCCC)CSCCCCC (repeat unit) | -33.00
28 | *CC(CO*)C(C)(C)C (repeat unit) | -4.00
29 | *CC(OO*)c1ccc(C)cc1 (repeat unit) | 4.60
30 | *CCC(=O)NCc1c(C)c(C)c(CNC(=O)CCO*)c(C)c1C (repeat unit) | 191.00
31 | *CCOCC(=O)O* (repeat unit) | -12.60
32 | *CCSSCCOCO* (repeat unit) | -57.50
33 | *COC(=O)OCC1OC(C)(C)OC1* (repeat unit) | 51.30
34 | *COC(=O)OCC1OC(OCC)OC1* (repeat unit) | 23.50
35 | *COC1OC(*)C(O)C(O)C1O (repeat unit) | 200.00
36 | *C[Si](C)(C)[Si](C)(C)[Si](C)(C)[Si](*)(C)C (repeat unit) | -68.00
37 | *Cc1c(C)c(C)c(CNC(=O)CCCC(=O)N*)c(C)c1C (repeat unit) | 192.00
38 | *Cc1cc(C)c(CNC(=O)CCCCC(=O)N*)cc1C (repeat unit) | 70.00
39 | *Cc1ccc(CSSS*)cc1 (repeat unit) | 8.00
40 | *Cc1ccccc1CSS* (repeat unit) | 39.00
41 | *OC(=O)OCC1OC(C)(C)OC1COC(=O)OC1COC2C(*)COC12 (repeat unit) | 95.50
42 | *OC(COCCOC)COC(*)=O (repeat unit) | -50.00
43 | *O[Si](C)(C)COC(=O)CCCCCCCCC(=O)Oc1ccc(S(=O)(=O)c2ccc(Oc3ccc(/C=C4\CCC/C(=C\c5ccc(Oc6ccc(S(=O)(=O)c7ccc(OC(=O)CCCCCCCCC(=O)OC[Si](*)(C)C)cc7)cc6)cc5)C4=O)cc3)cc2)cc1 (repeat unit) | 80.00

Results, then the compound that gave them:

Row | glass transition temperature [°C] | Structure (SMILES)
44 | 69.50 | *CC(=O)NCCCCCCNC(=O)Cc1ccc(O*)cc1 (repeat unit)
45 | 245.00 | *CC(=O)Nc1ccc(Oc2ccc(-c3ccc(Oc4ccc(NC(=O)CN5C(=O)c6ccc(C(c7ccc8c(c7)C(=O)N(*)C8=O)(C(F)(F)F)C(F)(F)F)cc6C5=O)cc4)cc3)cc2)cc1 (repeat unit)
46 | 235.00 | *CC(=O)Nc1ccc(Oc2ccc(NC(=O)CN3C(=O)c4ccc(C(=O)c5ccc6c(c5)C(=O)N(*)C6=O)cc4C3=O)cc2)cc1 (repeat unit)
47 | 65.00 | *CC(C(C)C)C(COC(=O)c1ccc(C(=O)O*)cc1)C(C)C (repeat unit)
48 | 33.00 | *CC(C)(C)COC(=O)Cc1ccc(C(=O)O*)cc1 (repeat unit)
49 | 68.00 | *CC(C)(C)COC(=O)c1ccc(C(=O)O*)cc1 (repeat unit)
50 | 105.00 | *CC(C)(C)CS(=O)(=O)CC(C)(C)COC(=O)c1ccc(C(=O)O*)cc1 (repeat unit)
51 | 99.00 | *CC(C)(CC)COC(=O)c1ccc(-c2ccc(C(=O)O*)cc2)cc1 (repeat unit)
52 | 63.00 | *CC(C)(CC)COC(=O)c1ccc(C(=O)O*)cc1 (repeat unit)
53 | 37.50 | *CC(C)C(C)COC(=O)c1ccc(C(=O)O*)cc1 (repeat unit)
54 | -20.00 | *CC(CC)(CC)COC(=O)c1ccc(-c2ccc(-c3ccc(C(=O)O*)cc3)cc2)cc1 (repeat unit)
55 | 32.00 | *CC(CC)C(CC)COC(=O)c1ccc(C(=O)O*)cc1 (repeat unit)
56 | 30.00 | *CC(CCC)C(CCC)COC(=O)c1ccc(C(=O)O*)cc1 (repeat unit)
57 | 16.00 | *CC(CCCC)C(CCCC)COC(=O)c1ccc(C(=O)O*)cc1 (repeat unit)
58 | 75.00 | *CC(CCCCCCCCCCCC)COC(=O)NC(=O)c1ccc(C(=O)NC(=O)O*)cc1 (repeat unit)
59 | 29.00 | *CC(CCCCCCOc1ccc(/N=N/c2ccc(C)cc2)cc1)COC(=O)CCCCC(=O)O* (repeat unit)
60 | 22.00 | *CC(CCCCCCOc1ccc(/N=N/c2ccc(OC)cc2)cc1)COC(=O)CCCCC(=O)O* (repeat unit)
61 | 100.00 | *CC(COc1c(Cl)cc(C(C)(C)c2cc(Cl)c(O*)c(Cl)c2)cc1Cl)OC(C)=O (repeat unit)
62 | 110.00 | *CC(COc1ccc(C(C)(c2ccccc2)c2ccc(O*)cc2)cc1)OC(C)=O (repeat unit)
63 | 143.20 | *CC(O)COc1ccc(Cc2ccc(O*)cc2)cc1 (repeat unit)

Row | glass transition temperature [°C] | Structure (SMILES)
64 | 50.90 | *CC(OC(=O)C(CC(C)C)NC(=O)OCc1ccccc1)C(COC(=O)O*)OC(=O)C(CC(C)C)NC(=O)OCc1ccccc1 (repeat unit)
65 | 90.90 | *CC(OC(=O)Oc1ccc(C(=O)OC)cc1)C(COC(=O)O*)OC(=O)Oc1ccc(C(=O)OC)cc1 (repeat unit)
66 | 84.00 | *CCC(C)Oc1ccc(-c2ccc(C(=O)OCC(C)COC(=O)c3ccc(-c4ccc(O*)cc4)cc3)cc2)cc1 (repeat unit)
67 | 196.00 | *Nc1cccc(NC(=O)c2cc(NC(=O)C(CCSC)N3C(=O)c4ccccc4C3=O)cc(C(*)=O)c2)c1 (repeat unit)
68 | 95.00 | *OC(C)COC(=O)c1ccccc1C(*)=O (repeat unit)
69 | 25.00 | *OC(C)COCC(C)OC(=O)c1ccccc1C(*)=O (repeat unit)
70 | 105.00 | *OC(COC(=O)C12CC3CC(CC(C(*)=O)(C3)C1)C2)COc1ccc(/N=N/c2ccc(C#N)cc2)cc1 (repeat unit)
71 | 106.00 | *OC(COC(=O)C1CCC(C(*)=O)CC1)COc1ccc(/N=N/c2ccc(C#N)cc2)cc1 (repeat unit)
72 | 119.00 | *OC(COC(=O)c1cccc(C(*)=O)c1)COc1ccc(/N=N/c2ccc(C#N)cc2)cc1 (repeat unit)
73 | 120.00 | *OC(COC(=O)c1ccccc1-c1ccccc1C(*)=O)COc1ccc(/N=N/c2ccc(C#N)cc2)cc1 (repeat unit)
74 | 105.00 | *OC(COC(=O)c1ccccc1C(*)=O)COc1ccc(/N=N/c2ccc(C#N)cc2)cc1 (repeat unit)
75 | 247.00 | *Oc1ccc(C(=O)CNc2ccc(S(=O)(=O)c3ccc(NCC(=O)c4ccc(*)cc4)cc3)cc2)cc1 (repeat unit)
76 | 73.00 | *Oc1ccc(C(=O)OCC(C)(C)COC(=O)c2ccc(*)cc2)cc1 (repeat unit)
77 | 208.00 | *Oc1ccc(NCC(=O)c2ccc(Sc3ccc(C(=O)CNc4ccc(*)cc4)cc3)cc2)cc1 (repeat unit)
78 | 251.00 | *Oc1ccc(Oc2ccc(NC(=O)c3cc(NC(=O)c4ccc(OC(C)=O)cc4)cc(C(=O)Nc4ccc(*)cc4)c3)cc2)cc1 (repeat unit)
79 | 251.00 | *Oc1cccc(NC(=O)c2cc(NC(=O)c3ccc(OC(C)=O)cc3)cc(C(=O)Nc3ccc(*)cc3)c2)c1 (repeat unit)
80 | 91.00 | *c1ccc(C(=O)NC(CC)COC(=O)c2ccc(N3C(=O)CC(SCCCCCSC4CC(=O)N(*)C4=O)C3=O)cc2)cc1 (repeat unit)
81 | 250.00 | *c1ccc2c(c1)C(=O)N(c1cc(C(=O)Nc3cccc4c(NC(=O)c5ccc(C)c(N6C(=O)c7ccc(C(*)(C(F)(F)F)C(F)(F)F)cc7C6=O)c5)cccc34)ccc1C)C2=O (repeat unit)
82 | 182.00 | *c1ccc2c(c1)C(=O)N(c1ccc(OC(CCCCCC)COc3ccc(N4C(=O)c5ccc(C(*)(C(F)(F)F)C(F)(F)F)cc5C4=O)cc3)cc1)C2=O (repeat unit)
